Assay results taken from US20210069295A1, “GALECTINS CONTROL MTOR IN RESPONSE TO ENDOMEMBRANE DAMAGE AND PROVIDE A MECHANISM AND TARGET FOR THE TREATMENT OF AUTOPHAGY-RELATED DISEASES” (STC. UNM, priority 2017, published 2021).
Peptide text beside a SMILES is read from it.

Test system: Ragulator-Rag complex
Assay: Co-immunoprecipitation of Ragulator, Rag GTPases and mTOR/Raptor in HEK293T cells
Format: cell-based
Conditions: 100 μM GPN 1 h
Experimental: (A) Analysis of mTOR activity in TSC2-deleted (TSC2−/−) and wildtype (TSC2WT) HeLa cells treated with 100 μM GPN in full medium (Full) or starved in EBSS for 1 h. mTOR activity was monitored by immunoblotting analysis of S6K1 (T389) phosphorylation (phosphorylated S6K (p-T389) relative to total S6K). Ctrl, control (untreated cells). (B) Co-immunoprecipitation analysis of changes in interactions between Ragulator and Rag GTPases following treatment with GPN. HEK293T cells stably expressing FLAG-metap2 (control) or FLAG-p14 were treated with 100 μM GPN in full medium for 1 h. Cell lysates were immunoprecipitated (IP) with anti-FLAG antibody and immunoblotted for endogenous RagA or RagC. […] (D) Analysis of mTOR activity in HEK293T cells or HEK293T cells stably expressing constitutively active RagB GTPase (RagBQ99L) treated with 100 μM GPN in full medium or starved in EBSS for 1 h. mTOR activity was monitored as in A. Data, means±SEM, (n=3), † not significant, **p<0.01, ANOVA. […] (F) Quantification by HC of overlaps between mTOR and LAMP2 (representative images shown in FIG. S2C) in HEK293T cells and HEK293T cells stably expressing constitutively active RagB GTPase (RagBQ99L) treated with 100 μM GPN in full medium for 1 h. Data, means±SEM, n≥3 independent experiments (500 primary objects counted per well; ≥5 wells/sample per each experiment); † p≥0.05, *p<0.05, ANOVA. […]

SMILES: NCC(=O)N[C@@H](Cc1ccccc1)C(=O)Nc1ccc2ccccc2c1 [GPN, glycyl-L-phenylalanine 2-naphththylamide] (HELM PEPTIDE1{G.F.[c1ccc2cc(N[*:1])ccc2c1]}$$$$V2.0)
- interactions between Ragulator (p14 and p18) and RagA/RagC in co-IPs: enhanced interactions
- mTOR and Raptor levels in complexes with RagB or RagA: diminished mTOR and Raptor levels
